Test system: 519858-162-T-J1-PDC complex spheroid viability
Assay: Anticancer human tumor 519858-162-T-J1-PDC patient-derived colon adenocarcinoma cell line growth inhibition [GQUAD]
Details: for IC50: curve of first compound; for viability, T/C: stronger effect = lower value; active = viability on the fitted dose curve at most 10% of control; inactive = the rest
Method in brief: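 Tumor cells were grown as complex spheroids with HUVEC endothelial cells and mesenchymal stem cells as stroma. G-quadruplex stabilizers were combined with targeted agents over half-log dilutions from near the clinical Cmax, or from 10 microM.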
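Also: spheroids exposed to compounds for 7 days.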
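For viability, T/C in this document: 100% = DMSO vehicle control viability.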

CC1COCCN1c1cc(C2(O)CC3CCC(C2)O3)c2cnn(-c3ccn[nH]3)c2n1 (configuration not stated) + Cc1cnc(CNC(=O)c2c(=O)c3ccc(N4CCCN(C)CC4)nc3n3c2sc2ccccc23)cn1
inactive: viability, T/C (second compound 0.0316 µM, first compound 0.0316 µM) 64.5% | viability, T/C (second compound 0.0316 µM, first compound 0.1 µM) 77.8% | viability, T/C (second compound 0.0316 µM, first compound 0.316 µM) 92.2% | viability, T/C (second compound 0.0316 µM, first compound 1 µM) 77.6% | viability, T/C (second compound 0.0316 µM, first compound 3.16 µM) 82% | viability, T/C (second compound 0.0316 µM, first compound 10 µM) 30.6% | viability, T/C (second compound 0.1 µM, first compound 0.0316 µM) 106% | viability, T/C (second compound 0.1 µM, first compound 0.1 µM) 85.8% | viability, T/C (second compound 0.1 µM, first compound 0.316 µM) 96.3% | viability, T/C (second compound 0.1 µM, first compound 1 µM) 44.8% | viability, T/C (second compound 0.1 µM, first compound 3.16 µM) 61.3% | viability, T/C (second compound 0.1 µM, first compound 10 µM) 57.7% | viability, T/C (second compound 0.316 µM, first compound 0.0316 µM) 65.6% | viability, T/C (second compound 0.316 µM, first compound 0.1 µM) 60% | viability, T/C (second compound 0.316 µM, first compound 0.316 µM) 51.7% | viability, T/C (second compound 0.316 µM, first compound 1 µM) 62.7% | viability, T/C (second compound 0.316 µM, first compound 3.16 µM) 49.2% | viability, T/C (second compound 0.316 µM, first compound 10 µM) 29.9% | viability, T/C (second compound 1 µM, first compound 0.0316 µM) 59.3% | viability, T/C (second compound 1 µM, first compound 0.1 µM) 60.8% | viability, T/C (second compound 1 µM, first compound 0.316 µM) 41.6% | viability, T/C (second compound 1 µM, first compound 1 µM) 43.4% | viability, T/C (second compound 1 µM, first compound 3.16 µM) 50.5% | viability, T/C (second compound 1 µM, first compound 10 µM) 39.6% | viability, T/C (second compound 3.16 µM, first compound 0.0316 µM) 45.7% | viability, T/C (second compound 3.16 µM, first compound 0.1 µM) 38.9% | viability, T/C (second compound 3.16 µM, first compound 0.316 µM) 44.9% | viability, T/C (second compound 3.16 µM, first compound 1 µM) 42.4% | viability, T/C (second compound 3.16 µM, first compound 3.16 µM) 26.8% | viability, T/C (second compound 3.16 µM, first compound 10 µM) 23.8% | viability, T/C (second compound 10 µM, first compound 0.0316 µM) 37.7% | viability, T/C (second compound 10 µM, first compound 0.1 µM) 44% | viability, T/C (second compound 10 µM, first compound 0.316 µM) 37.7% | viability, T/C (second compound 10 µM, first compound 1 µM) 39.2% | viability, T/C (second compound 10 µM, first compound 3.16 µM) 34.1% | viability, T/C (second compound 10 µM, first compound 10 µM) 23.7%
3.2 µM: IC50 (second compound 0.316 µM)
3.16 µM: IC50 (second compound 0.1 µM)
< 0.0316 µM: IC50 (second compound 3.16 µM) | IC50 (second compound 10 µM)
6.31 µM: IC50 (second compound 0.0316 µM)
0.235 µM: IC50 (second compound 1 µM)
